Experiment [1] deals with Prostacyclin receptor (Homo sapiens) (UniProt P43119). Put plainly: The compound was evaluated for the affinity towards Prostaglandin I2 receptor.
For experiment [2], the target named is T1, Prostaglandin D2 receptor (Homo sapiens) (UniProt Q13258).
T1 sequence (whole entry): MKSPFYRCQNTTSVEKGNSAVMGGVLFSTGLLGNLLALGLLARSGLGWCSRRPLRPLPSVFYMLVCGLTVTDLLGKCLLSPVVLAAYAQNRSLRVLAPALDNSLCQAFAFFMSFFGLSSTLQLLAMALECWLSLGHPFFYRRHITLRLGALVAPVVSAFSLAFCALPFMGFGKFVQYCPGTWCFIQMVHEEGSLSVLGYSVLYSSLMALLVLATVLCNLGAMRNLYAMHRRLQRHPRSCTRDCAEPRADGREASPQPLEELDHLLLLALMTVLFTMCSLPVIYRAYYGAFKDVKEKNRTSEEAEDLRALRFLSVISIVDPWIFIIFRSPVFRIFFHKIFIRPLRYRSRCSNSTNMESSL
In words: The compound was evaluated for the affinity towards PGD-2 receptor.

The nature of experiment [3]: The compound was evaluated for the affinity towards PGE-2 receptor.
Experiment [4] is described as follows: Concentration required for the inhibition of blood platelet aggregation induced by ADP. The experiment is classed as functional.
Experiment [5] addresses Prostacyclin receptor (Homo sapiens) (UniProt P43119). In words: The compound was evaluated for the affinity towards Prostaglandin I2 receptor; not parallel.
A short description of experiment [6]: The compound was evaluated for the affinity towards PGE-2 receptor; no competition.
The target in experiment [7] is Prostacyclin receptor (Homo sapiens) (UniProt P43119). In words: The compound was evaluated for the affinity towards Prostaglandin I2 receptor; no competition.

Structures are written as SMILES. The source made the active and inactive calls. The calls are words filed in the database; no cut-off is given here.

By IC50 is commonly meant the concentration that gives 50% inhibition. Low values mean greater potency in that assay, high ones weaker potency in that assay.

Chain of Prostacyclin receptor (Homo sapiens) (P43119 whole entry): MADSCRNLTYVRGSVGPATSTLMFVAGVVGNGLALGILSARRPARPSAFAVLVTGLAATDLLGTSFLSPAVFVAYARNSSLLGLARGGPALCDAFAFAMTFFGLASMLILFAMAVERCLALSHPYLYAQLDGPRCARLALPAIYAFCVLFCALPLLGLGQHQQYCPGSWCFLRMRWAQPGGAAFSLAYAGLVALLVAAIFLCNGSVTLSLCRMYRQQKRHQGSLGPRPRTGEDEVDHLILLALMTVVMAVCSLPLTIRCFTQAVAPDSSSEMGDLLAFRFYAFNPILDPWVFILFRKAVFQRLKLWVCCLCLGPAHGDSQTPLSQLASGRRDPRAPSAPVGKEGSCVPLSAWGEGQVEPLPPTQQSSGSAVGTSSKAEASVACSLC

In the case of `CC#CCC(C)[C@H](O)/C=C/[C@H]1[C@H](O)CC(=O)[C@@H]1CC(=O)CCCCC(=O)O` (some centres undefined), the KF was found to be 60 in experiment [1], 600 in experiment [2] and 140 in experiment [3]. This compound also displayed an IC50 in experiment [4] of 1.6 nM.
For `CC#CC[C@H](C)[C@H](O)/C=C/[C@H]1[C@H](O)CC(=O)[C@@H]1CC(=O)CCCCC(=O)O`, the KF in experiment [3] and in experiment [5] was 40 throughout. Also, the midpoint of inhibition in experiment [4], the IC50, lay at 1 nM.
In turn, `CC#CC[C@H](C)[C@H](O)/C=C/[C@@H]1[C@@H](CC(=O)CCCCC(=O)O)[C@H](F)C[C@H]1O` registered a KF in experiment [5] of 200. This compound also returned a half-inhibitory concentration (IC50) in experiment [4] of 100 nM.
As for `CCC#CC[C@H](C)[C@H](O)C#C[C@@H]1[C@@H](CC(=O)CCCCC(=O)O)[C@H](F)C[C@H]1O`, the KF was 700 in experiment [3] and 32 in experiment [5]. In experiment [4], this compound returned an IC50 of 20 nM.
Regarding `O=C(O)CCCCC(=O)C[C@H]1C(=O)C[C@@H](O)[C@@H]1/C=C/[C@@H](O)C1CCCCC1`, the KF in experiment [1] was 58; in experiment [2], 70. The KF entry in experiment [6] is “inactive”. In addition, the half-inhibitory concentration (IC50) in experiment [4] turned out to be 3 nM.
In the case of `CCCCC[C@H](O)/C=C/[C@H]1[C@H](O)CC(=O)[C@@H]1CC(=O)CCCCC(=O)O`, the KF in experiment [1] stood at 129; in experiment [3] it was 7.1. The compound also had an IC50 in experiment [4] of 7 nM.
For the compound `CC#CC[C@H](C)[C@H](O)/C=C/[C@@H]1[C@@H](CC(=O)CCCCC(=O)O)[C@@H](F)C[C@H]1O`, in experiment [7], the KF entry was “inactive”. Moreover, in experiment [4], the IC50 was found to be 1000 nM.
`CCC#CC[C@H](C)[C@H](O)C#C[C@H]1[C@H](O)CC(=O)[C@@H]1CC(=O)CCCCC(=O)O`: the figures for the KF in experiment [1] and in experiment [3] were 5 and 7.5, respectively. This compound also showed a concentration for half-maximal inhibition (IC50) in experiment [4] of 0.09 nM.

The values above are taken from ChEMBL document CHEMBL1151021, “Synthesis of potent 6-oxo and 9-fluoro-PGE1-derivatives and their biological properties” (Bioorg Med Chem Lett, 1992).
